Patent US20110100371A1, “ANTI-VIRAL PROPERTIES OF ZOSTERIC ACID AND RELATED MOLECULES” (FLORIDA GULF COAST UNIVERSITY, priority 2007, published 2011)
Entries after “also recorded” stand apart in the source; their conditions may differ. Where two headings read alike, the source gives them in different places.

What was measured:
DENV-2 strain NG-2 = assay: Focus forming unit (FFU) reduction assay, DENV-2; format: cell-based, dengue virus
Protocol: (§1) DENV-1 strain HI-1, DENV-2 strain NG-2, DENV-3 strain H-78, and DENV-4 strain H-42 were obtained from R. Tesh at the World Health Organization Arbovirus Reference Laboratory at the University of Texas at Galveston. Viruses were propagated in the […] kidney epithelial cell line, LLCMK-2, a gift of K. Olsen at Colorado State University. LLCMK-2 cells were grown in Dulbecco's modified eagle medium (DMEM) with 10% (v/v) fetal bovine serum (FBS), 2 mM Glutamax, 100 U/ml penicillin G, 100 μg/ml streptomycin and 0.25 μg/ml amphotericin B, at 37° C. with 5% (v/v) CO2.
LLCMK-2 target cells were seeded at a density of 1×10^5 cells in each well of a 6-well plate 24 h prior to infection. Approximately 200 FFU of virus were incubated with or without chemistries in serum-free DMEM for 1 h at rt. Virus/chemistry or virus/control mixtures were allowed to infect confluent target cell monolayers for 1 h at 37° C., with rocking every 15 m, after which time the medium was aspirated and overlaid with fresh DMEM/10% (v/v) FBS containing 0.85% (w/v) Sea-Plaque Agarose (Cambrex Bio Science, Rockland, Me.). Cells with agar overlays were incubated at 4° C. for 20 m to set the agar. Infected cells were then incubated at 37° C. with 5% CO2 for 3 days (DENV-1, 3 and 4) or 5 days (DENV-2). Infected cultures were fixed with 10% formalin overnight at 4° C., permeabilized with 70% (v/v) ethanol for 20 m, and rinsed with PBS prior to immunostaining. Virus foci were detected using supernatant from mouse anti-DENV hybridoma E60 (obtained from M. Diamond at Washington University) followed by horseradish peroxidase-conjugated goat anti-mouse immunoglobulin (Pierce, Rockford, Ill.) and developed using AEC chromogen substrate (Dako, Carpinteria, Calif.). Results were expressed as the average of at least two independent trials with three replicates in each trial.

DENV-3 strain H-78 = assay: Focus forming unit (FFU) reduction assay, DENV-3; format: cell-based; conditions: Dengue virus, DENV3, LLC-MK2; DENV-3 (D-3), LLCMK-2 target cells; read-out: IC50 μM ± sem
Protocol: as §1
(§2) LLCMK-2 target cells were seeded at a density of 1×10^5 cells in each well of a 6-well plate 24 h prior to infection. Approximately 200 FFU of virus were incubated with or without chemistries in serum-free DMEM for 1 h at rt. […] Virus foci were detected using supernatant from mouse anti-DENV hybridoma E60 (obtained from M. Diamond at Washington University) followed by horseradish peroxidase-conjugated goat anti-mouse immunoglobulin (Pierce, Rockford, Ill.) and developed using AEC chromogen substrate (Dako, Carpinteria, Calif.). Results were expressed as the average of at least two independent trials with three replicates in each trial.

DENV-2 [1] = assay: Pre-binding focus-forming assay; format: cell-based, dengue virus; conditions: DENV-2, chemistry incubated with target cells 1 h at 4° C., rinsed before infection
Protocol: To determine if the observed inhibitory effect was due to interference caused by modifications to the target cell surface, CF 238 was incubated with the target cells for 1 h at 4° C., the cells were rinsed with PBS, and approximately 200 FFU of DENV-2 was allowed to infect the cells at 4° C. Agarose overlays, incubation, and immunological detection were conducted as described for the focus forming assay.

DENV-2 [2] = assay: qRT-PCR virus binding assay; format: cell-based, dengue virus; conditions: DENV-2 pre-incubated 45 m at 4° C., infection of LLCMK-2 45 m at 4° C.
Protocol: Infection of LLCMK-2 target cells in six well plates was performed in duplicate using 10^5 FFU of DENV-2 that had been pre-incubated for 45 m at 4° C. with CF 238 or pooled heterotypic anti-DENY human serum. After a 45 m infection at 4° C., infected monolayers were washed with PBS and harvested with a cell scraper, added to a 1.5 ml microfuge tube containing 350 μl of AR-200 silicone oil (Sigma-Aldrich, St. Louis, Mo.) mixed with 150 μl of silicone fluid (Thomas, Swedesboro, N.J.), and spun at 14,000 rpm in a microfuge for 1 m to separate the unbound virus from the cell-bound virus in the pellets. The tubes were then submerged in liquid nitrogen for 30 s to freeze the contents. The cell pellets with bound virus were recovered by clipping off the bottoms of the tubes with small wire clippers into 15 ml conical tubes. Viral RNA was extracted from the cell pellets using the Qiagen Viral RNA Extraction kit (Qiagen, Chatsworth, Calif.).
Quantitative real time reverse transcription PCR (qRT-PCR) was performed on the extracted RNA using the Quantitect Sybr Green RT-PCR kit (Qiagen inc., Chatsworth, Calif.), following the manufacturer's specifications and amplification protocols, using dengue-specific primers: (Den2F: […], Den2R: […]). […]

DENV-2 [3] = assay: Post-binding focus-forming assay; format: cell-based, dengue virus; conditions: DENV-2 bound at 4° C., then chemistry added 1 h at 4° C.
Protocol: To determine if the observed inhibitory effect was due to interference with interactions that occur pre-binding versus post-binding of virions to the target cells, approximately 200 FFU of DENV-2 was allowed to bind to target LLCMK-2 cells for 1 h at 4° C. to allow binding, but prevent internalization. Unbound virus was washed off with PBS at 4° C., then CF 238 was added and incubated at 4° C. for 1 h. Cultures were washed again in 4° C. PBS and warmed to 37° C. Agarose overlays, incubation, and immunological detection were conducted as described for the focus forming assay.

DENV-1,2,3 and 4 = assay: Focus forming unit (FFU) reduction assay, several dengue strains stated together; format: cell-based; conditions: Dengue virus
Protocol: as §1, §2

DENV-2 [4] = assay: Post-entry focus-forming assay; format: cell-based, dengue virus; conditions: DENV-2, chemistry added post-entry 1 hr at 37° C.
Protocol: To determine if the observed inhibitory effect was due to interference with post-entry steps in the viral life cycle, approximately 200 FFU of DENV-2 without CF 238 was allowed to bind and enter target cells for 1 h at 37° C. as described for the focus forming assay. Unbound virus was then removed by rinsing with PBS and CF 238 was added to the cells post-entry for 1 hr at 37° C. Cultures were washed again in PBS and agarose overlays, incubation, and immunological detection was conducted as described for the focus forming assay.

DENV-1 strain HI-1 = assay: Focus forming unit (FFU) reduction assay, DENV-1; format: cell-based; conditions: Dengue virus, DENV1, LLC-MK2; DENV-1 (D-1), LLCMK-2 target cells; read-out: IC50 μM ± sem
Protocol: as §1, §2

DENV-4 strain H-42 = assay: Focus forming unit (FFU) reduction assay, DENV-4; format: cell-based; conditions: Dengue virus, DENV4, LLC-MK2; DENV-4 (D-4), LLCMK-2 target cells; read-out: IC50 μM ± sem
Protocol: as §1, §2

[5] = Dengue virus, DENV2, LLC-MK2, read-out: IC50 μM ± sem
[6] = Dengue virus, DENV2, read-out: maximum inhibition
[7] = Dengue virus, DENV2, DENV-2, rounded statement in text, read-out: IC50 (approximate)

`CCN(CCOC(=O)/C=C/c1ccc(O)cc1)Cc1cc(Cl)ccc1O` [CF 238] was tested, and the inhibition at 84 µM (DENV-2 strain NG-2; Dengue virus, DENV2, AT84) was 86%, the IC50 (DENV-2 strain NG-2; [5]) was 46 ± 4 µM and the “activity relative to zosteric acid” value (DENV-2 strain NG-2; anti-DENV inhibitory activity compared with the natural product) was about 100 times. For the same compound, the IC50 (DENV-3 strain H-78) was 14 ± 2 µM, the “inhibition when target cells treated prior to infection” value (DENV-2 [1]) was “no evidence of inhibition; also recorded: does not inhibit virus infection when pre-incubated with target cells” and the “virus binding/attachment to target cells (qRT-PCR signal)” value (DENV-2 [2]) was “did not inhibit virus binding; also recorded: enhances virus:cell binding”. The “inhibition of virus already bound to target cells” value (DENV-2 [3]) was “No inhibition of infection was observed”, the inhibition at 84 µM (DENV-1,2,3 and 4; DENV1, AT84, all dengue strains, at 84 μM) was 86 to 100% and the IC50 (DENV-1,2,3 and 4; DENV1, range over DENV-1, 3 and 4, read-out: IC50 against the other three DENV types) was 14 to 47 µM. For the same compound, the “inhibition when added after viral entry” value (DENV-2 [4]) was “no evidence of inhibition”, the IC50 (DENV-1 strain HI-1) was 24 ± 6 µM and the IC50 (DENV-4 strain H-42) was 47 ± 5 µM.
`CN(CCCNC(=O)c1ccc(O)cc1)CCCNC(=O)c1ccc(O)cc1` [CF 285] gave an IC50 (DENV-2 strain NG-2; [5]) of 2520 µM, an inhibition at 3000 µM (DENV-2 strain NG-2; [6]) of 63% and an IC50 (DENV-2 strain NG-2; [7]) of about 2000 µM.
`CN(CCCNC(=O)c1ccc(O)cc1)CCCNC(=O)c1ccc2cc(O)ccc2c1` [CF 290] was tested, and the IC50 (DENV-2 strain NG-2; [5]) was 294 ± 42 µM and the inhibition at 367 µM (DENV-2 strain NG-2; [6]) was 60%.
With `O=C(c1ccc(O)cc1)N1CCCN(C(=O)c2ccc3cc(O)ccc3c2)CC1` [CF 296] the “dose-dependent inhibition against DENV-2” value (DENV-2 strain NG-2; DENV-2, result in words) was “did not show evidence of clear dose-dependent inhibition”.
For `CCN(CCCN(CC)C(=O)c1cccc(O)c1)C(=O)c1cccc(O)c1` [CF 490], the IC50 (DENV-2 strain NG-2; [5]) was 2380 µM, the inhibition at 3000 µM (DENV-2 strain NG-2; [6]) was 84% and the IC50 (DENV-2 strain NG-2; [7]) was about 2000 µM.
`O=C(O)/C=C/c1ccc(OS(=O)(=O)O)cc1` [ZA, p-sulfoxy-cinnamic acid] showed an inhibition at 5000 µM (DENV-2 strain NG-2; Dengue virus, DENV2) of 99%, an IC50 (DENV-2 strain NG-2; [5]) of 2380 µM and an IC50 (DENV-2 strain NG-2; [7]) of about 2000 µM.
